Results from ChEMBL document CHEMBL1770151, “An efficient and expedient method for the synthesis of 11C-labeled α-aminoisobutyric acid: a tumor imaging agent potentially useful for cancer diagnosis” (Bioorg Med Chem Lett, 2011).

Experiments:
[1] = Drug uptake in human SY-cells xenografted mouse tumor at 20 MBq, iv after 50 to 60 mins by positron emission tomography; assay type: ADME, organism-based, Neoplasm; conditions: in vivo
[2] = Drug uptake in human SY-cells xenografted mouse tumor at 200 kBq, iv after 15 to 25 mins by positron emission tomography; assay type: ADME, organism-based, Neoplasm; conditions: in vivo

Drug uptake [1]	Drug uptake [2]	Structure (SMILES)
Active		CC([11CH3])(N)C(=O)O (stereo not drawn)
Active		[11CH3]SCC[C@H](N)C(=O)O
	Active	OC[C@H]1O[C@@H](O)[C@H]([18F])[C@@H](O)[C@@H]1O [FLUDEOXYGLUCOSE-F18]
